Patent US7351408B2 (priority 1997, dated 2008)

Legend:
Assay type in all cases: cell-based, human
Jurkat cells [1] = system: Jurkat cells
HeLa cells = system: HeLa cells
HL-60 cells = system: HL-60 cells
Jurkat cells [2] = test: Cell morphology and rate of cell growth during prolonged treatment; details: up to 6 weeks
Source text: We have also determined the quantitative and physiological limits to the cell surface expression of reactive functional groups. […] At saturation, we calculated the number of ketones accessible to chemoselective ligation and flow cytometry analysis to be approximately 1.8×10^6 per cell (32). No effects on cell morphology or the rate of cell growth were observed during prolonged (up to 6 weeks) treatment with ManLev.

Jurkat cells [3] = test: Normal sialic acid released by sialidase digestion, quantified by HPAEC
Source text: We therefore evaluated the effects of ManLev treatment on the amount of normal sialic acid on Jurkat cells, expecting a reduction.

CC(=O)CCC(=O)N[C@H]1C(O)O[C@H](CO)[C@@H](O)[C@@H]1O (stereo partly drawn) [GlcLev, N-levulinoyl glucosamine]
increase in fluorescence above the background level (ketone expression) (Jurkat cells [1]): only background fluorescence

CC(=O)CCC(=O)N[C@@H]1C(O)O[C@H](CO)[C@@H](O)[C@@H]1O (stereo partly drawn) [ManLev, N-levulinoyl mannosamine]
dose dependence of ketone expression (Jurkat cells [1]): dose dependent and saturable | increase in fluorescence above the background level (ketone expression) (Jurkat cells [1]): ≤ 30 fold | number of ketones accessible to chemoselective ligation and flow cytometry analysis (Jurkat cells [1]): approximately 1.8×10^6 per cell | increase in fluorescence above the background level (ketone expression) (HeLa cells): ≤ 30 fold | increase in fluorescence above the background level (ketone expression) (HL-60 cells): ≤ 30 fold | effects on cell morphology or the rate of cell growth (Jurkat cells [2]): No effects | amount of sialic acid released by sialidase digestion, lower than that from ManNAc-treated cells (Jurkat cells [3]): approximately 10 fold

CC(=O)N[C@@H]1C(O)O[C@H](CO)[C@@H](O)[C@@H]1O (stereo partly drawn) [ManNAc, N-Acetylmannosamine, reference compound]
effect on ketone expression resulting from ManLev treatment (Jurkat cells [1]): inhibited | increase in fluorescence above the background level (ketone expression) (Jurkat cells [1]): only a background level of fluorescence | increase in fluorescence above the background level (ketone expression) (HeLa cells): only a background level of fluorescence | increase in fluorescence above the background level (ketone expression) (HL-60 cells): only a background level of fluorescence

tunicamycin
effect on ketone expression resulting from ManLev treatment (Jurkat cells [1]): inhibited by tunicamycin in a dose-dependent fashion | effect on ketone expression resulting from ManLev treatment (HeLa cells): unaffected | effect on ketone expression resulting from ManLev treatment (HL-60 cells): unaffected
